{
  "source": "patent US6472435B1",
  "about": "“Anti-tumor agents” (Astrazeneca AB, priority 1998, dated 2002)",
  "key": {"[1]": {"tested_on": "spheroidal aggregates of EMT6 murine breast cancer cells", "assay": "Test (c): growth inhibition of spheroidal aggregates of EMT6 murine breast cancer cells", "assay_type": "cell-based", "conditions": "Mus musculus, 2 hours treatment, stasis of spheroid growth over 2-3 weeks, read-out: stasis ED50", "experimental": "(c) An in vitro assay which determines the ability of a test compound to inhibit the growth in an oxygenated culture medium of spheroidal aggregates (˜400 microns in diameter) of EMT6 murine breast cancer cells. As the oxygen diffusion distance through tissue is approximately 120-150 microns, such spheroids have a chronically hypoxic central population of cells and a well oxygenated outer layer of cells. The multicellular spheroids were treated with test compounds for 2 hours as a well oxygenated suspension culture. The spheroids were subsequently washed free of test compound and selected spheroids were transferred to static culture so that the effect of treatment on volume growth could be measured. […]\nEMT6 murine breast cells (obtained from P. R. Twentyman, MRC Oncology and Radiotherapeutics Unit, Cambridge, UK) were harvested from exponentially growing monolayer cultures and approximately 1×10^6 cells were used to inoculate a 500 ml spinner culture vessel containing Eagles minimal essential medium (200 ml; supplemented with 10% foetal calf serum, glutamate, non-essential amino acids, penicillin and streptomycin). […] The area of each spheroid was measured using an image analyser and the 24-well plates were transferred to a CO2 incubator at 37° C. The spheroids were then re-measured every 2-3 days for up to 21 days, with fresh culture medium (250 μl) being added to each well every 3 days. […]"}, "[2]": {"tested_on": "T18 murine breast tumours", "assay": "Test (d): in vivo growth delay of T18 murine breast tumours in Balb/c mice", "conditions": "single bolus dose of 20 mg/kg intraperitoneally", "source_text": "(d) An in vivo assay in a group of Balb/c mice which determines the ability of a test compound to delay the growth of T18 murine breast tumours. The detailed methodology was as follows:\nT18 murine breast tumour tissue was routinely maintained by animal to animal passage. To prepare a batch of tumours for an experiment, tumour tissue was removed from several donor Balb/c mice and placed in saline. Outer tissue was removed and healthy looking regions of tumour were cut into approximately 1 mm^3 pieces and implanted subcutaneously by trocar into the left flanks of anaesthetised female Balb/c mice. After 2-3 weeks, most of the implants had grown to approximately 8 mm in diameter. The animals were placed randomly into groups of 6-7, rejecting any with very large, or small, tumours. Each test compound was dissolved in DMSO and diluted with Cremophor EL followed by saline, to give a 1:1:3 mixture of DMSO, Cremophor EL and saline. Each test compound was administered by the intraperitoneal route as a single bolus dose (0.1 ml per 10 g body weight of each animal). Control animals received vehicle alone. All mice were weighed daily and the dimensions (length and width) of each tumour were measured every 2-3 days using vernier calipers. […] Growth curves were constructed and the effect of treatment was assessed using a growth delay endpoint."}},
  "data": [
    {"smiles": "CCCC1=C(C(C)(C)CC(=O)N(C)c2ccc(N(CCCl)CCCl)cc2)C(=O)C=C(C)C1=O", "note": "[Example 1, N-{4-[bis(2-chloroethyl)amino]phenyl}-3-(5-methyl-3-propyl-1,4-benzoquinon-2-yl)-3-methyl-N-methylbutyramide]", "values": [
      {"measurement": "EC50", "setting": "[1]", "result": "~4", "unit": "µM"},
      {"measurement": "growth delay", "setting": "[2]", "result": "approximately 9 days"}
    ]}
  ]
}
